Several values for one entry are separate records, joined by “and”; a condition that tells them apart may be missing. Equal entries are not always repeated.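 Method: 48-hour compound exposure of cells in 96-well plates, five concentrations, linear interpolation of endpoints. The concentration for 50% growth inhibition is given as GI50. At the TGI there is no net growth.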
Columns and labels:
Assay in all cases: DTP human tumour cell line panel, 48 h
HCT-116 colon = system: HCT-116 colon
HL-60(TB) leukemia = system: HL-60(TB) leukemia
IGROV1 ovarian = system: IGROV1 ovarian
K-562 leukemia = system: K-562 leukemia
LOX IMVI melanoma = system: LOX IMVI melanoma
M14 melanoma = system: M14 melanoma
MDA-MB-435 = system: MDA-MB-435
NCI-H522 lung = system: NCI-H522 lung
SNB-19 CNS = system: SNB-19 CNS
SR leukemia = system: SR leukemia

Compound	GI50 (HCT-116 colon) [µM]	TGI (HCT-116 colon)	GI50 (HL-60(TB) leukemia) [µM]	TGI (HL-60(TB) leukemia)	GI50 (IGROV1 ovarian) [µM]	TGI (IGROV1 ovarian)	TGI (K-562 leukemia)	GI50 (LOX IMVI melanoma) [µM]	TGI (LOX IMVI melanoma)	TGI (M14 melanoma)	TGI (MDA-MB-435)	TGI (NCI-H522 lung)	GI50 (SNB-19 CNS) [µM]	TGI (SNB-19 CNS)	GI50 (SR leukemia) [µM]	TGI (SR leukemia)	GI50 (K-562 leukemia) [µM]	GI50 (M14 melanoma) [µM]	GI50 (MDA-MB-435) [µM]	GI50 (NCI-H522 lung)
CCN(CC)CCCC(C)Nc1c2ccc(Cl)cc2nc2ccc(OC)cc12 (stereo not given)	1.38	5.79 µM and 4.31 µM	1.81	9.64 µM and 10.7 µM	3.21	13.2 µM and 5.49 µM	4.16 µM	1.52	3.56 µM and 2.57 µM	3.36 µM and 3.39 µM	3.08 µM and 2.79 µM	2.97 µM	1.96	10.8 µM and 16.2 µM	1.86	6 µM and 5.02 µM				
NOCC(=O)O	66.8	> 100 µM	32.2	> 100 µM	> 100	> 100 µM	> 100 µM	> 100	> 100 µM	> 100 µM	> 100 µM	> 100 µM	> 100	> 100 µM	> 100	> 100 µM	> 100	82.8	> 100	25.9 µM
CC(=O)CC(=O)Nc1ccc2ccccc2c1		> 100 µM		> 100 µM		> 100 µM	> 100 µM		> 100 µM	> 100 µM	> 100 µM	> 100 µM		> 100 µM		> 100 µM				
CCC1(CC)C(=O)OC(=O)C1(CC)CC		> 100 µM		> 100 µM		> 100 µM	> 100 µM		> 100 µM	> 100 µM	> 100 µM	> 100 µM		> 100 µM		> 100 µM				
C=C1C(=O)O[C@H]2[C@H]1CC/C(CNC(=O)c1cc3cc(OC)ccc3[nH]1)=C\CC[C@@]1(C)O[C@@H]21	0.645	2.07 µM	1.97	6.37 µM	2.04	5.94 µM	7.99 µM	1.36	2.67 µM	3.54 µM	5.03 µM	2.55 µM	7.94	21.7 µM	2.24	10.1 µM	2.56	1.5	1.73	0.7 µM
CN1CCN(CCCN)CC1		> 100 µM		> 100 µM		> 100 µM	> 100 µM		> 100 µM	> 100 µM	> 100 µM	> 100 µM		> 100 µM		> 100 µM				
Nc1ccc(N(S(=O)(=O)c2ccccc2)S(=O)(=O)c2ccccc2)c(Cl)c1		> 100 µM				> 100 µM	> 100 µM		> 100 µM	> 100 µM	> 100 µM	> 100 µM		> 100 µM		> 100 µM				
ClCc1cccc(Cn2cnc3c(NC45CC6CC(CC(C6)C4)C5)ncnc32)c1	12.6	30.4 µM	1.24	26.6 µM	18.3	45.8 µM	29.4 µM	15.7	31.7 µM	27.6 µM	29.8 µM	39.2 µM	17.2	44.2 µM		18.9 µM	1.89	12.1	13.4	17.4 µM
CC(C)=CCCC(C)c1ccc(C)c2c1OCN(CC1CCNCC1)C2 (stereo not given)	7.17	21.7 µM	3.9	18.9 µM	16.6	32.2 µM	8.44 µM	5.87	20.2 µM	24.5 µM	20.9 µM	28.6 µM	14	29.4 µM	2.79	9.83 µM	2.68	10.2	6.48	13.5 µM
CCOC(=O)c1cc(C#N)c(=O)n(/N=C(\C)c2ccncc2)c1O	> 100	> 100 µM			> 100	> 100 µM	> 100 µM	> 100	> 100 µM	> 100 µM	> 100 µM		> 100	> 100 µM	> 100	> 100 µM	> 100	> 100	> 100	
CC(C)c1ccc(C(=O)Nc2nc3ccc(O)cc3s2)cc1	0.468	> 100 µM	0.481	20.2 µM	0.361	> 100 µM	28.6 µM	0.2	29.5 µM	46.5 µM	> 100 µM	> 100 µM	8.27	> 100 µM	0.715	68.7 µM	0.298	0.167	0.443	0.693 µM
Cn1c([N+](=O)[O-])cnc1/C=C1\Oc2ccccc2C1=O	0.187	1.06 µM	0.28	1.5 µM	0.6	5.87 µM	7.02 µM	0.176	0.506 µM	2.51 µM	0.395 µM	2.26 µM	1.47	5.58 µM	0.0392	0.534 µM	0.487	0.32	0.175	0.552 µM
O=[N+]([O-])c1cc(Cl)c(Cl)c([N+](=O)[O-])c1Cl	0.624	2.12 µM	0.439	2.92 µM	1.42	3.02 µM	> 100 µM	0.299	1.11 µM	2.23 µM	3.46 µM		6.55	22.6 µM	0.538	4.93 µM	0.353	0.642	1.7	
COc1ccc(/C=N\NC(=O)CN2CCN(c3cc4c(cc3F)c(=O)c(C(=O)N/N=C/c3ccc(OC)c(OC)c3)cn4C3CC3)CC2)cc1OC	3.15	11.4 µM	3.36	18.2 µM	3.1	17.1 µM	> 100 µM	3.22	11.3 µM	11.9 µM	3.97 µM	> 100 µM	3.11	12.5 µM	3.11	> 100 µM	3.81	3.53	2.02	3.66 µM
CCN(CC)CC(O)CNc1ccc(NCC2CO2)c2c1C(=O)c1ccccc1C2=O (stereo not given)	0.0866	1.11 µM	0.00216		0.657	5.79 µM		0.00454	0.0392 µM and 0.0576 µM	0.402 µM and 0.674 µM	0.394 µM	2.41 µM		7.52 µM	0.0346		0.0135		0.133	0.958 µM
COc1cc(C(=O)/C(C)=C/c2c[nH]c3ccccc23)cc(OC)c1OC	0.00359	> 100 µM	0.00228	0.00652 µM	0.00566	> 100 µM	> 100 µM	0.00468	11.5 µM	1.89 µM	0.00633 µM	0.00728 µM	0.00406	> 100 µM	0.00333		0.00346	0.00338	0.00232	0.00282 µM
COc1cc2c(cc1OCCCOc1cc3c(cc1OC)C(=O)N1C[C@H](F)C[C@H]1C=N3)N=C[C@@H]1C[C@@H](F)CN1C2=O	6.4	42.8 µM			1.89	5.88 µM	12.7 µM	2.41	10.5 µM	16.4 µM	27.4 µM	4.59 µM	14	27.7 µM	1.54	6.38 µM	2.98	3.52	14.3	1.88 µM
CCN1CCN(C(=O)[C@]23CC[C@@H](C)[C@H](C)[C@@H]2C2=CC[C@@H]4[C@@]5(C)C/C(=C/c6ccncc6)C(=O)C(C)(C)[C@@H]5CC[C@@]4(C)[C@]2(C)CC3)CC1			1.9	4.9 µM	1.7	3.36 µM	7.25 µM	1.51	2.98 µM		3.24 µM		1.58	2.99 µM	1.89	5.29 µM	2.47		1.62	
O=S(=O)(NC1=NCCN1C(=S)SN1CCn2c1nsc2=S)c1ccc(Br)cc1	24.7	73.2 µM	24.3	60.1 µM	30.7	95 µM	83.2 µM	19.4	39.6 µM	> 100 µM	> 100 µM	36.8 µM	> 100	> 100 µM	24.2	74.1 µM	24.6	68.8	27.6	15 µM
O=c1c2cc(Cl)ccc2oc2ccc(OCCCCCN3CCCCC3)cc12	1.75	6.8 µM	6.24	15.4 µM	6.77	14.4 µM	7.55 µM	0.967	2.12 µM	2.84 µM	2.37 µM	10.4 µM	6.83	13.5 µM	1.47	5.47 µM	1.76	1.17	1.02	3.48 µM
O=C1c2ccccc2C(=O)N1CCCSc1ccccc1		> 100 µM		> 100 µM		> 100 µM	> 100 µM		> 100 µM	> 100 µM	> 100 µM	> 100 µM		> 100 µM		> 100 µM				
O=c1c(Oc2ccc(F)cc2F)cc2cnc(NC3CCOCC3)nc2n1C1CCS(=O)(=O)CC1	> 25	> 25 µM	> 25	> 25 µM	> 25	> 25 µM	> 25 µM	> 25	> 25 µM	> 25 µM	> 25 µM	> 25 µM	> 25	> 25 µM	> 25	> 25 µM	> 25	> 25	> 25	> 25 µM
O=c1ccn(C2OC(CO)C(O)C2F)c(=O)[nH]1 (stereo not given)	> 1000	> 1000 µM	> 1000	> 1000 µM	> 1000	> 1000 µM	> 1000 µM	> 1000	> 1000 µM	> 1000 µM	> 1000 µM	> 1000 µM	> 1000	> 1000 µM	> 1000	> 1000 µM	> 1000	> 1000	> 1000	> 1000 µM
Cc1c[nH]c2c(O)cc3c(c12)[C@H](CCl)CN3C(=O)c1cc2cc(NC(=O)Nc3ccc4[nH]c(C(=O)N5C[C@@H](CCl)c6c5cc(O)c5[nH]cc(C)c65)cc4c3)ccc2[nH]1	0.0031				0.0255	44 µM		0.00117				20.2 nM and 2e-06 µg/mL			0.000244			0.00359	0.0146	4.49 nM and 8.9e-07 µg/mL
O=Cc1ccc(-c2cc(C=O)c(-c3cccs3)[nH]2)s1	64.2	75 µM and > 100 µM			30.8	75 µM and > 100 µM	75 µM and > 100 µM	> 100	75 µM and > 100 µM	75 µM and > 100 µM	75 µM and > 100 µM	19.9 µM and 57.4 µM	> 100	75 µM and > 100 µM	31.6	72.7 µM and > 100 µM	77.5	27.5	43.7	19.6 µM
C=CCC(N[C@H](CO)c1ccccc1)c1ccc2ccccc2n1 (stereo not given in full)	> 100	> 100 µM	48.7	> 100 µM	45.9	> 100 µM	> 100 µM	> 100	> 100 µM	> 100 µM	> 100 µM	> 100 µM			> 100	> 100 µM	> 100	> 100	> 100	> 100 µM
CC(=O)Nc1ccc(C(=O)NN2C(=O)C(Cl)C2c2ccc(Cl)cc2)cc1 (stereo not given)		> 100 µM		> 100 µM		> 100 µM	> 100 µM			> 100 µM	> 100 µM	> 100 µM		59.2 µM		> 100 µM				
O=C(/C=C/c1ccc(F)cc1)c1ccc(Cl)cc1Cl	16.6	31.3 µM			> 100	> 100 µM	> 100 µM	41.1	> 100 µM	> 100 µM	> 100 µM	> 100 µM	23.7	77.8 µM	26.4	86.5 µM	33.9	> 100	50	47.7 µM
Cn1ccnc1CC(C)(O)c1ccccc1 (stereo not given)		> 100 µM				> 100 µM	> 100 µM		> 100 µM	> 100 µM	> 100 µM	> 100 µM		> 100 µM		> 100 µM				
